From patent publication US4559323A, “A41030 Antibiotics” (Eli Lilly and Company, priority 1984, dated 1985)
Like-named read-outs stand apart in the source and are kept apart here.

Tests used:
[1] = system: Klebsiella pneumoniae; assay: Agar-dilution MIC; type: cell-based; settings: Table 17; 24 hours; Klebsiella pneumoniae X68
[2] = system: Citrobacter freundii; settings: Table 17; 24 hours; Citrobacter freundii CF17
Source text: (§1) The agar-dilution procedure described by the International Collaborative study (ICS) group was used to determine the minimum inhibitory concentrations (MIC's).

[3] = system: Haemophilus parainfluenzae; assay: Agar-dilution MIC; type: cell-based; settings: Table 18, 24 hours
[4] = system: Pc. magnus; assay: Agar-dilution MIC (anaerobes); type: cell-based, Peptococcus magnus; settings: Table 15
Procedure: (§2) The MIC values were determined by the agar-dilution method, and are recorded in Table 15, which follows.

[5] = mice, administered intraperitoneally
[6] = system: Streptococcus sp. (Group D); assay: Agar-dilution MIC; type: cell-based; settings: 24 hours
Source text: as §1

[7] = system: Staphylococcus epidermidis; assay: Agar-dilution MIC; type: cell-based; settings: 24 hours
Source text: as §1

[8] = system: Streptococcus pneumoniae; assay: Agar-dilution MIC; type: cell-based; settings: 24 hours
Source text: as §1

[9] = system: B. thetaiotaomicron; type: cell-based
Source text: as §1

[10] = system: Serratia marcescens; assay: Agar-dilution MIC; type: cell-based; settings: Table 17; 24 hours; Serratia marcescens X99
[11] = system: Staphylococcus aureus; assay: Agar-dilution MIC; type: cell-based
[12] = system: Peptococcus asaccharolyticus; assay: Agar-dilution MIC (anaerobes); type: cell-based; settings: Table 14; Peptococcus asaccharolyticus 1302
[13] = system: Clostridium perfringens; type: cell-based; settings: Table 14; Clostridium perfringens 81
[14] = system: Clostridium difficile; type: cell-based; settings: Table 14; Clostridium difficile 2994
[15] = system: Streptococcus sp. Group B; assay: Agar-dilution MIC; type: cell-based; settings: Table 18, 24 hours
Source text: The in vitro activity of antibiotic A41030 factors A and B against a number of representative aerobic, gram-positive bacteria, including Streptococcus sp. Group D, has been determined using a standard agar-dilution assay.

[16] = system: Escherichia coli; assay: Agar-dilution MIC; type: cell-based; settings: Table 17, 24 hours
[17] = system: Enterobacter aerogenes; assay: Agar-dilution MIC; type: cell-based; settings: Table 17; 24 hours; Enterobacter aerogenes C32
[18] = system: Enterobacter cloacae; assay: Agar-dilution MIC; type: cell-based; settings: Table 17, 24 hours
[19] = system: Propionibacterium acnes; assay: Agar-dilution MIC (anaerobes); type: cell-based
Source text: Antibiotic A41030 factors A, B and C have also been tested and found to be active against a genus of anaerobic bacteria identified as Propionibacterium acnes.

[20] = system: S. pyogenes; assay: In vivo oral activity against S. pyogenes in mice
[21] = system: Peptococcus asaccharolyticus; assay: Agar-dilution MIC (anaerobes); type: cell-based; settings: Table 15
Procedure: as §2

[22] = Table 17, Streptococcus sp. Group D 9960
[23] = Table 17, Streptococcus sp. Group D X66
[24] = Table 17, Staphylococcus epidermidis EPI1
[25] = Table 17, Streptococcus pneumoniae Park I
[26] = Table 12, 24-hour, B. thetaiotaomicron 1438
[27] = Table 12, 24-hour, B. thetaiotaomicron 1900A
[28] = Table 14, Bacteroides thetalotaomicron 1438
[29] = Table 17, 24 hours, Staphylococcus aureus X400
[30] = Table 13, 24-hour, P. acnes 101
[31] = Table 13, 24-hour, P. acnes 103
[32] = Table 13, 24-hour, P. acnes 104
[33] = Table 13, 24-hour, P. acnes 105
[34] = Table 13, 24-hour, P. acnes 106
[35] = Table 13, 24-hour, P. acnes 107
[36] = Table 13, 24-hour, P. acnes 5170
[37] = Table 13, 24-hour, P. acnes 5176
[38] = Table 13, 24-hour, P. acnes 5187
[39] = Table 13, 24-hour, P. acnes 5191
[40] = Table 13, 24-hour, P. acnes 5197
[41] = Table 13, 24-hour, P. acnes 5226
[42] = Table 13, 24-hour, P. acnes 5227
[43] = Table 13, 24-hour, P. acnes 5228
[44] = Table 13, 24-hour, P. acnes 5229
[45] = Table 13, 24-hour, P. acnes 5246
[46] = Table 13, 24-hour, P. acnes 5292
[47] = Table 14, Propionibacterium acnes 79

N[C@H]1C(=O)N[C@@H]2Cc3ccc(c(Cl)c3)Oc3cc4cc(c3O)Oc3ccc(cc3Cl)[C@@H](O)[C@@H]3NC(=O)C(NC(=O)[C@@H]4NC(=O)[C@@H](NC2=O)c2cc(O)cc(c2)Oc2cc1ccc2O)c1ccc(O)c(c1)-c1c(O)cc(O)cc1[C@@H](C(=O)O)NC3=O [A41030 factor B]
64 µg/mL: MIC [17]
≤ 0.25 µg/mL: MIC [12]
0.5 µg/mL: MIC ([6]; Table 18, Streptococcus sp. Group D 2041) | MIC ([6]; Table 18, Streptococcus sp. Group D 2058) | MIC ([6]; Table 18, Streptococcus sp. Group D 9960) | MIC ([6]; Table 18, Streptococcus sp. Group D 12253F) | MIC ([7]; Table 17, Staphylococcus epidermidis EPI2) | MIC [8, 25] | MIC ([8]; Table 18, Streptococcus pneumoniae B1-438) | MIC [13] | MIC [19, 41] | MIC [19, 43] | MIC ([21]; Pc. asaccharolyticus 1344)
> 300 mg./kg.X2: in vivo oral activity [20]
128 µg/mL: MIC [1] | MIC [2] | MIC [9, 27] | MIC [10] | MIC ([16]; Escherichia coli EC14) | MIC ([16]; Escherichia coli N10) | MIC ([16]; Escherichia coli TEM) | MIC ([18]; Enterobacter cloacae 265A) | MIC ([18]; Enterobacter cloacae EB5)
≤ 0.03 µg/mL: MIC [19, 36]
> 300 mg/kg: LD50 [5] | acute toxicity [5]
0.25 µg/mL: MIC ([4]; Pc. magnus 1477) | MIC ([6]; Table 18, Streptococcus sp. Group D 8043) | MIC ([6]; Table 18, Streptococcus sp. Group D Mx161) | MIC ([6]; Table 18, Streptococcus sp. Group D X66) | MIC [11, 29] | MIC [19, 32] | MIC [19, 44]
0.03 µg/mL: MIC ([7]; Table 18, Staphylococcus epidermidis 219) | MIC ([7]; Table 18, Staphylococcus epidermidis 269) | MIC ([7]; Table 18, Staphylococcus epidermidis 285)
1 µg/mL: MIC [6, 22] | MIC [6, 23] | MIC ([6]; Table 18, Streptococcus sp. Group D 9901) | MIC ([15]; Streptococcus sp. Group B 5)
32 µg/mL: MIC [9, 26] | MIC [9, 28] | MIC [14]
0.06 µg/mL: MIC ([7]; Table 18, Staphylococcus epidermidis 270) | MIC ([11]; Table 18, 24 hours, Staphylococcus aureus 3055) | MIC ([11]; Table 18, 24 hours, Staphylococcus aureus V138) | MIC ([19]; Table 13, 24-hour, P. acnes 44) | MIC ([19]; Table 13, 24-hour, P. acnes 79) | MIC [19, 30] | MIC [19, 31] | MIC [19, 33] | MIC [19, 34] | MIC [19, 35] | MIC [19, 37] | MIC [19, 38] | MIC [19, 39] | MIC [19, 40] | MIC [19, 42] | MIC [19, 46]
16 µg/mL: MIC ([3]; Haemophilus parainfluenzae 7901) | MIC ([3]; Haemophilus parainfluenzae 9796) | MIC [19, 47]
0.125 µg/mL: MIC ([4]; Pc. magnus 1401) | MIC ([4]; Pc. magnus 1421) | MIC [7, 24] | MIC ([7]; Table 18, Staphylococcus epidermidis 222) | MIC ([8]; Table 18, Streptococcus pneumoniae Park I) | MIC [11] | MIC ([11]; Table 17, 24 hours, Staphylococcus aureus S13E) | MIC ([15]; Streptococcus sp. Group B 14) | MIC [19, 45] | MIC ([21]; Pc. asaccharolyticus 1302)

A41030 factor C
0.125 µg/mL: MIC ([19]; Table 13, 24-hour, P. acnes 44) | MIC ([19]; Table 13, 24-hour, P. acnes 79) | MIC [19, 30] | MIC [19, 31] | MIC [19, 33] | MIC [19, 34] | MIC [19, 35] | MIC [19, 39] | MIC [19, 41] | MIC ([21]; Pc. asaccharolyticus 1302)
0.25 µg/mL: MIC ([4]; Pc. magnus 1401) | MIC ([4]; Pc. magnus 1421) | MIC [19, 32]
1 µg/mL: MIC [8, 25] | MIC [11, 29]
32 µg/mL: MIC [9, 26]
0.06 µg/mL: MIC [19, 38] | MIC [19, 42] | MIC [19, 45] | MIC [19, 46]
≤ 0.03 µg/mL: MIC [19, 36] | MIC [19, 37] | MIC [19, 40]
16 µg/mL: MIC [14]
128 µg/mL: MIC [9, 27]
1.0 µg/mL: MIC [13] | MIC [19, 43] | MIC ([21]; Pc. asaccharolyticus 1344)
2 µg/mL: MIC [6, 23]
0.5 µg/mL: MIC ([4]; Pc. magnus 1477) | MIC [7, 24] | MIC [19, 44]
64 µg/mL: MIC [9, 28]
4 µg/mL: MIC [6, 22]
≤ 0.25 µg/mL: MIC [12] | MIC [19, 47]
> 300 mg./kg.X2: in vivo oral activity [20]
